Reference: US20100261711A1, “SELECTIVE ANTICONVULSANT AGENTS AND THEIR USES” (WiSys Technology Foundation, priority 2009, published 2010)
Where two headings read alike, the source gives them in different places.

Tests used:
[1] = biological target: T1, GABAA/α4 (α4β3γ2 GABAA receptors) (Homo sapiens, UniProt P18507+P48169); assay: Competitive binding assay, [3H]flunitrazepam
T1 construct: expressed in transfected cells
Method: (§1) The GABAA subunit selectivity of several compounds prepared as described above were determined using competitive binding assays. […] Membranes were harvested with a Brandel cell harvester followed by three ice-cold washes onto polyethyleneimine-pretreated (0.3%) Whatman GF/C filters. Filters were dried overnight and then soaked in Ecoscint, a liquid scintillation cocktail (National Diagnostics; Atlanta, Ga.). Bound radioactivity was quantified by liquid scintillation counting. Membrane protein concentrations were determined using an assay kit from Bio-Rad (Hercules, Calif.) with bovine serum albumin as the standard.

[2] = biological target: T2, GABAA/α6 (α6β3γ2 GABAA receptors) (Homo sapiens, UniProt P18507+Q16445); assay: Competitive binding assay, [3H]flunitrazepam
T2 construct: expressed in transfected cells
Method: as §1

MES-induced seizures = assay: Maximal electroshock test (MES), mice; type: in vivo; settings: Mice IP
Method: (§2) The benzodiazepine derivative compounds selective for GABAa receptor subunits were tested for the ability to suppress seizures in several standard rat and mouse models of epilepsy. […] The standard models incorporated into anticonvulsant screening include the maximal electroshock test (MES), the subcutaneous Metrazol test (scMet), and evaluations of toxicity (TOX). The data for each condition is presented as a ratio of either the number of animals protected or toxic (loss of locomotor activity) over the number of animals tested at a given time point and dose.
The MES is a model for generalized tonic-clonic seizures and provides an indication of a compound's ability to prevent seizure spread when all neuronal circuits in the brain are maximally active. These seizures are highly reproducible and are electrophysiologically consistent with human seizures. For all tests based on MES convulsions, 60 Hz of alternating current (50 mA in mice, 150 in rats) is delivered for by corneal electrodes which have been primed with an electrolyte solution containing an anesthetic agent (0.5% tetracaine HCL). For Test 1, mice are tested at various intervals following doses of 30, 100 and 300 mg/kg of test compound given by ip injection of a volume of 0.01 mL/g. In Test 2, rats are tested after a dose of 30 mg/kg (po) in a volume of 0.04 mL/g. Test 8 uses varying doses administered via i.p. injection, again in a volume of 0.04 ml/g. […] In Antiepileptic Drugs, Levy, R. H. M., Meldrum, B. S., Eds.; Raven Press: New York, pp 99-110, 1995b.).

[3] = system: Metrazol-induced clonic seizures; assay: Subcutaneous Metrazol test (scMet), mice; type: in vivo; settings: Mice IP
Method: as §2
(§3) Subcutaneous injection of the convulsant Metrazol produces clonic seizures in laboratory animals. […] Animals are pretreated with various doses of the test compound (in a similar manner to the MES test, although a dose of 50 mg/kg (po) is the standard for Test 2 scMet). At the previously determined TPE of the test compound, the dose of Metrazol which will induce convulsions in 97% of animals (CD97: 85 mg/kg mice) is injected into a loose fold of skin in the midline of the neck. […] An episode of clonic spasms, approximately 3-5 seconds, of the fore and/or hindlimbs, jaws, or vibrissae is taken as the endpoint.

[4] = system: minimal muscular or neurological impairment; assay: Toxicity (TOX), rotorod procedure, mice; type: in vivo; settings: Mice IP
Method: as §2
(§4) To assess a compound's undesirable side effects (toxicity), animals are monitored for overt signs of impaired neurological or muscular function. […] When a mouse is placed on a rod that rotates at a speed of 6 rpm, the animal can maintain its equilibrium for long periods of time. The animal is considered toxic if it falls off this rotating rod three times during a 1-min period. In rats, minimal motor deficit is indicated by ataxia, which is manifested by an abnormal, uncoordinated gait. Rats used for evaluating toxicity are examined before the test drug is administered, since individual animals may have peculiarities in gait, equilibrium, placing response, etc., which might be attributed erroneously to the test substance.

[5] = system: Metrazol-induced clonic seizures; assay: Subcutaneous Metrazol test (scMet), rats; type: in vivo; settings: Rat PO, 50 mg/kg
Method: as §2, §3

[6] = system: minimal motor deficit (ataxia, abnormal gait); assay: Toxicity (TOX), minimal motor deficit, rats; type: in vivo; settings: Rat PO, 50 mg/kg
Method: as §2, §4

6 Hz psychomotor seizure = assay: Minimal clonic seizure (6 Hz) test; type: in vivo; settings: Mice IP; for ED50: Mus musculus, ip, 1 h, 1 Hr, read-out: ED50 (6 Hz)
Text: Like the maximal electroshock (MES) test, the minimal clonic seizure (6 Hz) test is used to assess a compound's efficacy against electrically-induced seizures but uses a lower frequency (6 Hz) and longer duration of stimulation (3 s). Test compounds are pre-administered to mice via ip injection. […] Untreated mice will display seizures characterized by a minimal clonic phase followed by stereotyped, automatistic behaviors described originally as being similar to the aura of human subjects with partial seizures. Animals not displaying this behavior are considered protected (Table 10).

[7] = biological target: T3, GABAA/α1 (α1β3γ2 GABAA receptors) (Homo sapiens, UniProt P14867+P18507); assay: Competitive binding assay, [3H]flunitrazepam
T3 construct: expressed in transfected cells
Method: as §1

[8] = biological target: T4, GABAA/α2 (α2β3γ2 GABAA receptors) (Homo sapiens, UniProt P18507+P47869); assay: Competitive binding assay, [3H]flunitrazepam
T4 construct: expressed in transfected cells
Method: as §1

[9] = biological target: T5, GABAA/α3 (α3β3γ2 GABAA receptors) (Homo sapiens, UniProt P18507+P34903); assay: Competitive binding assay, [3H]flunitrazepam; settings: Binding Affinity at GABAA/α3, αxβ3γ2, [3H]flunitrazepam competition
T5 construct: expressed in transfected cells
Method: as §1

[10] = biological target: T6, GABAA/α5 (α5β3γ2 GABAA receptors) (Homo sapiens, UniProt P18507+P31644); assay: Competitive binding assay, [3H]flunitrazepam; settings: Binding Affinity at GABAA/α5, αxβ3γ2, [3H]flunitrazepam competition
T6 construct: expressed in transfected cells
Method: as §1

[11] = Binding Affinity at GABAA/α1, αxβ3γ2, [3H]flunitrazepam competition
[12] = Binding Affinity at GABAA/α2, αxβ3γ2, [3H]flunitrazepam competition

C#Cc1ccc2c(c1)C(c1ccccc1F)=NC(C)c1c(C(=O)OCC)ncn1-2 (single isomer, unassigned) [SH-053-2′F-S-CH3, 8-Ethynyl-6-(2-fluorophenyl)-4-methyl-4H-2,5,10b-triazabenzo[e]azulene-3-carboxylic acid ethyl ester]
Ki [1]: > 5000 nM | Ki [2]: > 5000 nM | MES, animals protected/tested (MES-induced seizures; 30 mg/kg, 0.5 Hr): 0/1 | MES, animals protected/tested (MES-induced seizures; 30 mg/kg, 4.0 Hr): 0/1 | MES, animals protected/tested (MES-induced seizures; 100 mg/kg, 0.5 hr): 0/3 | MES, animals protected/tested (MES-induced seizures; 100 mg/kg, 4.0 hr): 0/3 | MES, animals protected/tested (MES-induced seizures; 300 mg/kg, 0.5 Hr): 0/1 | MES, animals protected/tested (MES-induced seizures; 300 mg/kg, 4.0 Hr): 0/1 | scMet, animals protected/tested ([3]; 30 mg/kg, 0.5 Hr): 0/1 | scMet, animals protected/tested ([3]; 30 mg/kg, 4.0 Hr): 0/1 | scMet, animals protected/tested ([3]; 100 mg/kg, 0.5 hr): 2/5 | scMet, animals protected/tested ([3]; 100 mg/kg, 4.0 hr): 0/1 | scMet, animals protected/tested ([3]; 300 mg/kg, 0.5 Hr): 1/1 | scMet, animals protected/tested ([3]; 300 mg/kg, 4.0 Hr): 0/1 | TOX (Rotorod Test), animals toxic/tested ([4]; 30 mg/kg, 0.5 Hr): 0/4 | TOX (Rotorod Test), animals toxic/tested ([4]; 30 mg/kg, 4.0 Hr): 0/2 | TOX (Rotorod Test), animals toxic/tested ([4]; 100 mg/kg, 0.5 hr): 1/8 | TOX (Rotorod Test), animals toxic/tested ([4]; 100 mg/kg, 4.0 hr): 0/4 | TOX (Rotorod Test), animals toxic/tested ([4]; 300 mg/kg, 0.5 Hr): 2/4 | TOX (Rotorod Test), animals toxic/tested ([4]; 300 mg/kg, 4.0 Hr): 0/2 | scMet, animals protected/tested ([5]; 0.5 h): 0/4 | scMet, animals protected/tested ([5]; 1.0 h): 0/4 | scMet, animals protected/tested ([5]; 2.0 h): 1/4 | scMet, animals protected/tested ([5]; 4.0 h): 0/4 | scMet, animals protected/tested ([5]; […]): 1/4 | Tox, animals toxic/tested ([6]; 0.5 h): 0/4 | Tox, animals toxic/tested ([6]; 1.0 h): 0/4 | Tox, animals toxic/tested ([6]; 2.0 h): 0/4 | Tox, animals toxic/tested ([6]; 4.0 h): 0/4 | Tox, animals toxic/tested ([6]; […]): 0/4 | 6 Hz Time to Peak Effect, protected/tested (6 Hz psychomotor seizure; 30 mg/kg, 22 mA, 1.0 Hr): 6/8 | 6 Hz Time to Peak Effect, protected/tested (6 Hz psychomotor seizure; 30 mg/kg, 22 mA, 2.0 Hr): 2/8 | 6 Hz Time to Peak Effect, protected/tested (6 Hz psychomotor seizure; 50 mg/kg, 22 mA, 0.5 Hr): 1/4 | 6 Hz Time to Peak Effect, protected/tested (6 Hz psychomotor seizure; 50 mg/kg, 22 mA, 1.0 Hr): 3/4 | 6 Hz Time to Peak Effect, protected/tested (6 Hz psychomotor seizure; 50 mg/kg, 22 mA, 2.0 Hr): 3/4 | 6 Hz Time to Peak Effect, protected/tested (6 Hz psychomotor seizure; 100 mg/kg, 22 mA, 0.25 Hr): 2/4 | 6 Hz Time to Peak Effect, protected/tested (6 Hz psychomotor seizure; 100 mg/kg, 22 mA, 0.5 Hr): 4/4 | 6 Hz Time to Peak Effect, protected/tested (6 Hz psychomotor seizure; 100 mg/kg, 22 mA, 1.0 Hr): 4/4 | 6 Hz Time to Peak Effect, protected/tested (6 Hz psychomotor seizure; 100 mg/kg, 22 mA, 2.0 Hr): 4/4 | 6 Hz Time to Peak Effect, protected/tested (6 Hz psychomotor seizure; 100 mg/kg, 22 mA, 4.0 Hr): 2/4 | 6 Hz Time to Peak Effect, protected/tested (6 Hz psychomotor seizure; 100 mg/kg, 32 mA, 0.25 Hr): 2/4 | 6 Hz Time to Peak Effect, protected/tested (6 Hz psychomotor seizure; 100 mg/kg, 32 mA, 0.5 Hr): 1/4 | 6 Hz Time to Peak Effect, protected/tested (6 Hz psychomotor seizure; 100 mg/kg, 32 mA, 1.0 Hr): 4/4 | 6 Hz Time to Peak Effect, protected/tested (6 Hz psychomotor seizure; 100 mg/kg, 32 mA, 2.0 Hr): 2/4 | 6 Hz Time to Peak Effect, protected/tested (6 Hz psychomotor seizure; 100 mg/kg, 32 mA, 4.0 Hr): 2/4 | ED50 (6 Hz psychomotor seizure; 22 mA): 14.2 mg/kg | ED50 (6 Hz psychomotor seizure; 32 mA): 71.2 mg/kg

C#Cc1ccc2c(c1)C(c1ccccc1)=NC(C)c1c(C(=O)OCC)ncn1-2 (single isomer, unassigned) [SH-053-R-CH3, 8-Ethynyl-4-methyl-6-phenyl-4H-2,5,10b-triaza-benzo[e]azulene-3-carboxylic acid ethyl ester]
Ki [7, 11]: 2030 nM | Ki [8, 12]: 2380 nM | Ki [9]: 1180 nM | Ki ([1]; read-out: Binding Affinity at GABAA/α4, αxβ3γ2, [3H]flunitrazepam competition): > 5000 nM | Ki [10]: 949 nM | Ki ([2]; read-out: Binding Affinity at GABAA/α6, αxβ3γ2, [3H]flunitrazepam competition): > 5000 nM

C#Cc1ccc2c(c1)C(c1ccccc1F)=NC(C)c1c(C(=O)OCC)ncn1-2 (single isomer, unassigned) [SH-053-2′F-R-CH3, 8-Ethynyl-6-(2-fluorophenyl)-4-methyl-4H-2,5,10b-triaza-benzo[e]azulene-3-carboxylic acid ethyl ester]
Ki [1]: > 5000 nM | Ki [2]: > 5000 nM

C#Cc1ccc2c(c1)C(c1ccccc1)=NC(C)c1c(C(=O)OCC)ncn1-2 (single isomer, unassigned) [SH-053-S-CH3, 8-Ethynyl-4-methyl-6-phenyl-4H-2,5,10b-triaza-benzo[e]azulene-3-carboxylic acid ethyl ester]
Ki [7, 11]: 1670 nM | Ki [8, 12]: 1260 nM | Ki [9]: 1250 nM | Ki [1]: > 5000 nM | Ki [10]: 206 nM | Ki [2]: > 5000 nM

CN1C(=O)CN=C(c2ccccc2)c2cc(Cl)ccc21 [Diazepam, reference compound]
Ki [1]: > 1000 nM | Ki [2]: > 1000 nM

C#Cc1ccc2c(c1)C(c1cccs1)=NCc1c(C(=O)OCC)ncn1-2 [JC 221 (76), Ethyl 8-acetyleno-6-(2′-thienyl)-4H-benzo[f]imidazo[1,5-a][1,4]diazepine-3-carboxylate]
Ki ([7]; αxβ3γ2, [3H]flunitrazepam competition, read-out: Binding Affinity at GABAA/α1): 146 nM | Ki ([8]; αxβ3γ2, [3H]flunitrazepam competition, read-out: Binding Affinity at GABAA/α2): 35 nM | Ki [9]: 182 nM | Ki [10]: 14.3 nM | Ki [2]: 362 nM | MES, animals protected/tested (MES-induced seizures; 100 mg/kg, 0.5 hr): 0/3 | MES, animals protected/tested (MES-induced seizures; 100 mg/kg, 4.0 hr): 0/3 | scMet, animals protected/tested ([3]; 100 mg/kg, 0.5 hr): 0/1 | scMet, animals protected/tested ([3]; 100 mg/kg, 4.0 hr): 0/1 | TOX (Rotorod Test), animals toxic/tested ([4]; 100 mg/kg, 0.5 hr): 0/8 | TOX (Rotorod Test), animals toxic/tested ([4]; 100 mg/kg, 4.0 hr): 0/4
